Assay results taken from patent US20150105252A1, “SUBSTITUTED PYRAZOLES AS HERBICIDES” (E I DU PONT DE NEMOURS AND COMPANY, priority 2013, published 2015).

How the values were obtained:
wheat, spring = test: Test D preemergence; format: in vivo, Triticum aestivum; details: for Plant response rating, Wheat, Spring: Preemergence, scale 0 to 100
From the text: (§1) Seeds of plant species selected from bluegrass (annual bluegrass, Poa annua), blackgrass (Alopecurus myosuroides), canarygrass (littleseed canarygrass, Phalaris minor), chickweed (common chickweed, Stellaria media), galium (catchweed bedstraw, Galium aparine), bromegrass, downy (downy bromegrass, Bromus tectorum), field poppy (Papaver rhoeas), field violet (Viola arvensis), foxtail, green (green foxtail, Setaria viridis), deadnettle (henbit deadnettle, Lamium amplexicaule), ryegrass, Italian (Italian ryegrass, Lolium multiflorum), kochia (Kochia scoparia), lambsquarters (Chenopodium album), oilseed rape (Brassica napus), pigweed (redroot pigweed, Amaranthus retroflexus), chamomile (scentless chamomile, Matricaria inodora), speedwell (bird's-eye speedwell, Veronica persica), barley, spring (spring barley, Hordeum vulgare), wheat, spring (spring wheat, Triticum aestivum), buckwheat, wild (wild buckwheat, Polygonum convolvulus), mustard, wild (wild mustard, Sinapis arvensis), oat, wild (wild oat, Avena fatua), radish, wild (wild radish, Raphanus raphanistrum), windgrass (Apera spica-venti), Russian thistle (Salsola kali), barley, winter (winter barley, Hordeum vulgare), and wheat, winter (winter wheat, Triticum aestivum) were planted into a silt loam soil and treated preemergence with test chemicals formulated in a non-phytotoxic solvent mixture which included a surfactant.
(§2) At the same time, these species were planted in pots containing Redi-Earth® planting medium (Scotts Company, 14111 Scottslawn Road, Marysville, Ohio 43041) comprising spaghnum peat moss, vermiculite, wetting agent and starter nutrients and treated with postemergence applications of the test chemicals formulated in the same manner. Plants ranged in height from 2 to 18 cm (1- to 4-leaf stage). Treated plants and controls were maintained in a controlled growth environment for 14 to 21 days after which time all species were compared to controls and visually evaluated. Plant response ratings, summarized in Table D, are based on a scale of 0 to 100 where 0 is no effect and 100 is complete control. A dash (-) response means no test result.

wheat, winter = test: Test D preemergence; format: in vivo, Triticum aestivum; details: for Plant response rating, Wheat, Winter: Preemergence, scale 0 to 100
From the text: as §1, §2

foxtail, green = test: Test D preemergence; format: in vivo, Setaria viridis; details: for Plant response rating, Foxtail, Green: Preemergence, scale 0 to 100
From the text: as §1, §2

chickweed = test: Test D postemergence; format: in vivo, Stellaria media; details: scale 0 to 100
From the text: as §1, §2

radish, wild = test: Test D preemergence; format: in vivo, Raphanus raphanistrum; details: Preemergence, scale 0 to 100
From the text: as §1, §2

deadnettle [1] = test: Test D postemergence; format: in vivo, Lamium amplexicaule; details: scale 0 to 100
From the text: as §1, §2

bromegrass, downy = test: Test D preemergence; format: in vivo, Bromus tectorum; details: for Plant response rating, Bromegrass, Downy: Preemergence, scale 0 to 100
From the text: as §1, §2

blackgrass [2] = test: Test D preemergence; format: in vivo, Alopecurus myosuroides; details: for Plant response rating, Blackgrass: Preemergence, scale 0 to 100
From the text: as §1, §2

speedwell = test: Test D postemergence; format: in vivo, Veronica persica; details: scale 0 to 100
From the text: as §1, §2

deadnettle [3] = test: Test D preemergence; format: in vivo, Lamium amplexicaule; details: for Plant response rating, Deadnettle: Preemergence, scale 0 to 100
From the text: as §1, §2

blackgrass [4] = test: Test D postemergence; format: in vivo, Alopecurus myosuroides; details: scale 0 to 100
From the text: as §1, §2

bluegrass = test: Test D postemergence; format: in vivo, Poa annua; details: scale 0 to 100
From the text: as §1, §2

oilseed rape = test: Test D preemergence; format: in vivo, Brassica napus; details: for Plant response rating, Oilseed Rape: Preemergence, scale 0 to 100
From the text: as §1, §2

pigweed = test: Test D postemergence; format: in vivo, Amaranthus retroflexus; details: scale 0 to 100
From the text: as §1, §2

[5] = 16 g ai/ha, taken as preemergence

Structure (SMILES): CCc1cc(C(=O)NC2CC2)nn1Cc1ccnc(C(F)(F)F)c1 [Compound 76]
- Plant response rating (scale 0 to 100), Wheat, Spring (wheat, spring; [5]): 0
- Plant response rating, Wheat, Spring (wheat, spring; 31 g ai/ha): 0
- Plant response rating, Wheat, Spring (wheat, spring; 62 g ai/ha): 10
- Plant response rating, Wheat, Spring (wheat, spring; 125 g ai/ha): 60
- Plant response rating, Wheat, Spring (wheat, spring; 250 g ai/ha): 75
- Plant response rating (scale 0 to 100), Wheat, Winter (wheat, winter; [5]): 0
- Plant response rating, Wheat, Winter (wheat, winter; 31 g ai/ha): 0
- Plant response rating, Wheat, Winter (wheat, winter; 62 g ai/ha): 5
- Plant response rating, Wheat, Winter (wheat, winter; 125 g ai/ha): 40
- Plant response rating, Wheat, Winter (wheat, winter; 250 g ai/ha): 60
- Plant response rating (scale 0 to 100), Foxtail, Green (foxtail, green; [5]): 25
- Plant response rating, Foxtail, Green (foxtail, green; 31 g ai/ha): 50
- Plant response rating, Foxtail, Green (foxtail, green; 62 g ai/ha): 100
- Plant response rating, Foxtail, Green (foxtail, green; 125 g ai/ha): 100
- Plant response rating, Foxtail, Green (foxtail, green; 250 g ai/ha): 100
- Plant response rating, Chickweed (chickweed; Postemergence, 16 g ai/ha): 35
- Chickweed plant response rating (chickweed; Postemergence, 31 g ai/ha): 50
- Chickweed plant response rating (chickweed; Postemergence, 125 g ai/ha): 60
- Chickweed plant response rating (chickweed; Postemergence, 250 g ai/ha): 70
- Chickweed plant response rating (chickweed; postemergence, 62 g ai/ha): 55
- Plant response rating, Radish, Wild (radish, wild; 31 g ai/ha): 75
- Plant response rating, Radish, Wild (radish, wild; 62 g ai/ha): 100
- Plant response rating, Radish, Wild (radish, wild; 125 g ai/ha): 100
- Plant response rating, Radish, Wild (radish, wild; 250 g ai/ha): 100
- Plant response rating, Deadnettle (deadnettle [1]; Postemergence, 16 g ai/ha): 15
- Deadnettle plant response rating (deadnettle [1]; Postemergence, 31 g ai/ha): 25
- Deadnettle plant response rating (deadnettle [1]; Postemergence, 125 g ai/ha): 50
- Deadnettle plant response rating (deadnettle [1]; Postemergence, 250 g ai/ha): 70
- Deadnettle plant response rating (deadnettle [1]; postemergence, 62 g ai/ha): 40
- Plant response rating (scale 0 to 100), Bromegrass, Downy (bromegrass, downy; [5]): 0
- Plant response rating, Bromegrass, Downy (bromegrass, downy; 31 g ai/ha): 0
- Plant response rating, Bromegrass, Downy (bromegrass, downy; 62 g ai/ha): 0
- Plant response rating, Bromegrass, Downy (bromegrass, downy; 125 g ai/ha): 5
- Plant response rating, Bromegrass, Downy (bromegrass, downy; 250 g ai/ha): 65
- Plant response rating (scale 0 to 100), Blackgrass (blackgrass [2]; [5]): 20
- Plant response rating, Blackgrass (blackgrass [2]; 31 g ai/ha): 50
- Plant response rating, Blackgrass (blackgrass [2]; 62 g ai/ha): 100
- Plant response rating, Blackgrass (blackgrass [2]; 125 g ai/ha): 100
- Plant response rating, Blackgrass (blackgrass [2]; 250 g ai/ha): 100
- Plant response rating, Speedwell (speedwell; Postemergence, 16 g ai/ha): 65
- Speedwell plant response rating (speedwell; Postemergence, 31 g ai/ha): 60
- Speedwell plant response rating (speedwell; Postemergence, 125 g ai/ha): 75
- Speedwell plant response rating (speedwell; Postemergence, 250 g ai/ha): 100
- Speedwell plant response rating (speedwell; postemergence, 62 g ai/ha): 75
- Plant response rating (scale 0 to 100), Deadnettle (deadnettle [3]; [5]): 0
- Plant response rating, Deadnettle (deadnettle [3]; 31 g ai/ha): 50
- Plant response rating, Deadnettle (deadnettle [3]; 62 g ai/ha): 100
- Plant response rating, Deadnettle (deadnettle [3]; 125 g ai/ha): 100
- Plant response rating, Deadnettle (deadnettle [3]; 250 g ai/ha): 100
- Plant response rating, Blackgrass (blackgrass [4]; Postemergence, 16 g ai/ha): 5
- Blackgrass plant response rating (blackgrass [4]; Postemergence, 31 g ai/ha): 0
- Blackgrass plant response rating (blackgrass [4]; Postemergence, 125 g ai/ha): 10
- Blackgrass plant response rating (blackgrass [4]; Postemergence, 250 g ai/ha): 10
- Blackgrass plant response rating (blackgrass [4]; postemergence, 62 g ai/ha): 5
- Plant response rating, Bluegrass (bluegrass; Postemergence, 16 g ai/ha): 5
- Bluegrass plant response rating (bluegrass; Postemergence, 31 g ai/ha): 5
- Bluegrass plant response rating (bluegrass; Postemergence, 125 g ai/ha): 20
- Bluegrass plant response rating (bluegrass; Postemergence, 250 g ai/ha): 20
- Bluegrass plant response rating (bluegrass; postemergence, 62 g ai/ha): 10
- Plant response rating (scale 0 to 100), Oilseed Rape (oilseed rape; [5]): 10
- Plant response rating, Oilseed Rape (oilseed rape; 31 g ai/ha): 30
- Plant response rating, Oilseed Rape (oilseed rape; 62 g ai/ha): 65
- Plant response rating, Oilseed Rape (oilseed rape; 125 g ai/ha): 90
- Plant response rating, Oilseed Rape (oilseed rape; 250 g ai/ha): 100
- Plant response rating, Pigweed (pigweed; Postemergence, 16 g ai/ha): 50
- Pigweed plant response rating (pigweed; Postemergence, 31 g ai/ha): 55
- Pigweed plant response rating (pigweed; Postemergence, 125 g ai/ha): 80
- Pigweed plant response rating (pigweed; Postemergence, 250 g ai/ha): 80
- Pigweed plant response rating (pigweed; postemergence, 62 g ai/ha): 65
